Results published in patent US20250241901A1, “ACTIVATION OF MNRR1 / CHCHD2 AS A THERAPEUTIC TARGET FOR MITOCHONDRIA ASSOCIATED DISORDERS” (Wayne State University, priority 2024, published 2025).

Assays:
Format in all cases: cell-based, human
[1] = test system: PHD3; experiment: PHD3 protein levels in MELAS cybrid cells (immunoblot); details: 10 μM, 24 h
Description: FIGS. 14A-14D: PHD3 levels are reduced in MELAS cybrid cells and enhanced by nitazoxanide to increase MNRR1 levels. FIG. 14A: Transcript levels of PHD1, 2, and 3 in MELAS cybrid cells harboring the levels of heteroplasmy shown (data from). FIG. 14B: Protein levels of PHD3 in MELAS cybrid cells with 0% (CL9) and 70% heteroplasmy (DW7). GAPDH was probed as loading control. FIG. 14C: Equal amounts of MELAS cybrid cell lysates, treated with vehicle (DMSO), nitazoxanide, or tizoxanide (10 μM) for 24 h, were separated on an SDS-PAGE gel and probed for PHD1, PHD3, MNRR1, and Tubulin. FIG. 14D: Oxygen consumption measured from MELAS cybrid cells overexpressing PHD1 or PHD3. (n=4 biological replicates, error bars show SE).
Immunoblotting: Immunoblotting was performed as described previously. Cell lysates for immunoblotting were prepared using RIPA buffer (Abcam, Waltham, MA) and included a protease and phosphatase inhibitor cocktail (Sigma, St. Louis, MO). Total protein extracts were obtained by centrifugation at 21,000×g for 30 min at 4° C. The clear supernatants were transferred to new tubes and quantified using the Bradford reagent with BSA as standard (BioRad, Hercules. CA). […] For detection after immunoblotting, the SuperSignal™ West Pico PLUS substrate (ThermoFisher, Waltham, MA) was used to generate chemiluminescence signal, which was detected with X-Ray film (RadTech, Vassar, MI).

[2] = test system: HIF2α; experiment: HIF2α protein levels in MELAS cybrid cells (immunoblot)
Description: FIGS. 10A-10E: The reduction of MNRR1 in MELAS cells is via HIF2α acting at the ORE and not the HRE. FIG. 10A: Above, Equal amounts of MELAS cell lysates, treated with vehicle (DMSO) or increasing amounts of tizoxanide (2.5 to 40 μM) for 24 h, were separated on an SDS-PAGE gel and probed for HIF2α, MNRR1, and Tubulin. Below, Protein quantification for MNRR1 and HIF2α relative to Tubulin. FIG. 10B: Dual luciferase reporter assay showing relative activation of MNRR1-luciferase in MELAS cybrid cells overexpressing WT (FIG. 9A), Δ 801-952 (FIG. 9A), ΔORE (positions 47-53 of SEQ ID NO: 25 in FIG. 9C) or ΔHRE (positions 59-66 of SEQ ID NO: 25 in FIG. 9C). FIG. 10C: Dual luciferase reporter assay showing relative activation of HRE-luciferase levels in cybrid cells with 0% (CL9) and 70% MELAS heteroplasmy (DW7). […]
Immunoblotting: Immunoblotting was performed as described previously. […] The clear supernatants were transferred to new tubes and quantified using the Bradford reagent with BSA as standard (BioRad, Hercules. CA). […] For detection after immunoblotting, the SuperSignal™ West Pico PLUS substrate (ThermoFisher, Waltham, MA) was used to generate chemiluminescence signal, which was detected with X-Ray film (RadTech, Vassar, MI).

[3] = test system: MNRR1; experiment: MNRR1 transcript levels in MELAS cells (RT-PCR); details: relative to 18S rRNA
Description: FIGS. 6A-6C: FIG. 6A: Above, Chemical structures of nitazoxanide, its metabolites, and similar compounds. Abbreviations: P4, Phenyl-4-aminosalicylic acid; 4ABA, 4-Aminobenzanilide; 4ASA, 4-Amino salicylic acid; BA, Benzanilide; PBO, Phenyl benzoate; PSA, Phenyl salicylic acid; 2AN, 2-Amino 5-nitrothiazole. Below, Equal amounts of lysates of MELAS cells treated with Vehicle (DMSO) or the various compounds (10 μM) for 24 h were separated on an SDS-PAGE gel and probed for MNRR1 levels. Actin was probed as a loading control and numbers below represent an average and SD of 3 biological replicates. FIGS. 6B-6C: MNRR1 transcript levels are shown relative to 18S rRNA (n=4 biological replicates, error bars represent SE). In all figures, * indicates p<0.05, ** indicates p<0.005.
Real-time polymerase chain reaction (RT-PCR): Total cellular RNA was extracted from MELAS cells with a RNeasy Plus Mini Kit (Qiagen) according to the manufacturer's instructions. Complementary DNA (cDNA) was generated by reverse transcriptase polymerase chain reaction (PCR) using the ProtoScript® II First Strand cDNA Synthesis Kit (New England Biolabs, Ipswich, MA). Transcript levels were measured by real time PCR using SYBR green on an ABI 7500 system. Real-time analysis was performed by the ΔΔ^Ct method. […]

## O=C(Nc1ncc([N+](=O)[O-])s1)c1ccccc1O [tizoxanide, Tizoxanide]
[1]
  PHD3 protein level: most increased
[2]; MELAS cybrid cells, 2.5 to 40 μM, 24 h
  HIF2α protein levels relative to MNRR1: inversely proportional in a concentration dependent manner to MNRR1
[3]
  MNRR1 transcription: induced its transcription

## CC(=O)Oc1ccccc1C(=O)Nc1ncc([N+](=O)[O-])s1 [nitazoxanide, Nitazoxanide]
[1]
  PHD3 protein level: increasing
[2]; MELAS cells
  levels of HIF2α: reduces
[3]
  MNRR1 transcription: induced its transcription
